Target: ATP-dependent translocase ABCB1 (Homo sapiens, UniProt P08183)
Test: TP_TRANSPORTER: increase in Doxorubicin intracellular accumulation (Doxorubicin: 0.05 ug/mL, MS-209: 3 uM) in K562/ADM cells
Assay type: functional, cell-based
Details: k562/adr

ATP-dependent translocase ABCB1, sequence (P08183 whole entry): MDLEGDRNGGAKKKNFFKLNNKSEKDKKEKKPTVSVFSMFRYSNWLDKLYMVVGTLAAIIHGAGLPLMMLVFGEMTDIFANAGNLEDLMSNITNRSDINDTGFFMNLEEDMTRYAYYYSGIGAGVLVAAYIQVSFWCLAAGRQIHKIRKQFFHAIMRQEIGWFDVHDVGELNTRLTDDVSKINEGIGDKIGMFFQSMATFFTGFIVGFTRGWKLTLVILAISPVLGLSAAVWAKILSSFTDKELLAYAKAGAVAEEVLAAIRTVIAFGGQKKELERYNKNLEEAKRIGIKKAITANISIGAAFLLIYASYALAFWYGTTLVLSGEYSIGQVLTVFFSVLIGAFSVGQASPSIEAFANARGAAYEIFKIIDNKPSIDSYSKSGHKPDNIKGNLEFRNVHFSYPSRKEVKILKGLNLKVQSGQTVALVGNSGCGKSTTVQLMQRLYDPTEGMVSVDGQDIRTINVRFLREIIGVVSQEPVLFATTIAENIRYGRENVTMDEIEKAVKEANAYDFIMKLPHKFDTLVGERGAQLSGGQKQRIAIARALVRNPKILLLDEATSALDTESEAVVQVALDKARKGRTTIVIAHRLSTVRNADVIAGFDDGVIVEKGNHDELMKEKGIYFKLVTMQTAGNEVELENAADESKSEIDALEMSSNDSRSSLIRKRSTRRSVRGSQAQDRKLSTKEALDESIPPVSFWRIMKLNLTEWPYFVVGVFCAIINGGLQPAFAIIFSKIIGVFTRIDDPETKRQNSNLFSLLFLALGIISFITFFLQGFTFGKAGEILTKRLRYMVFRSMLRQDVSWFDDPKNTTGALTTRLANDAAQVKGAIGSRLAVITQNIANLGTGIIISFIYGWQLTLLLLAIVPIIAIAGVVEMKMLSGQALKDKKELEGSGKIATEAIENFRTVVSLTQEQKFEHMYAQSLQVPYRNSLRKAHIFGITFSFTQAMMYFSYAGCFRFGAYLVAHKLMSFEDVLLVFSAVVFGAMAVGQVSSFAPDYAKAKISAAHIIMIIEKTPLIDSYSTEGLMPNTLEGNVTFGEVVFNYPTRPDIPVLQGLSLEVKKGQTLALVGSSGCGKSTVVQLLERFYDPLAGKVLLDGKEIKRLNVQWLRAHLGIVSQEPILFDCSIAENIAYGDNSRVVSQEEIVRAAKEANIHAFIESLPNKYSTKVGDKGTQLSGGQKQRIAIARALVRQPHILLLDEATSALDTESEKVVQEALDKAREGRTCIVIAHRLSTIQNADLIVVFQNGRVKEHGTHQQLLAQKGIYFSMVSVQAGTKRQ

Activity: inhibitor [+]
Compound: O=C(C(c1ccccc1)c1ccccc1)N1CCN(C[C@@H](O)COc2cccc3ncccc23)CC1
